The text below walks through data of patent US9346795B2, “Substituted sulfonamides useful as antiapoptotic Bcl inhibitors” (Bristol-Myers Squibb Company, priority 2011, dated 2016).

One assay concerns the target Bcl-xL (Homo sapiens (Human), UniProt Q07817). As to the kind of experiment: Bcl-xL/Bim Fluorescence Resonance Energy Transfer Assay (FRET). It is filed as binding. An outline of the steps:
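IC50 values come from non-linear regression over an eleven-point compound titration. Each compound was first incubated with biotinylated Bcl-xL and Bim for 60 min at room temperature. FRET was then detected after a 30 min dark incubation with streptavidin-terbium.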

A further assay addresses Bcl-2 (Homo sapiens (Human), UniProt P10415). As to the kind of experiment: Bcl-2/Bim Fluorescence Polarization Assay (FPA). It counts as binding. For orientation: Fluorescence polarisation rises when a labelled molecule tumbles more slowly, as on binding a larger partner.

Chain of Bcl-xL (Q07817 whole entry): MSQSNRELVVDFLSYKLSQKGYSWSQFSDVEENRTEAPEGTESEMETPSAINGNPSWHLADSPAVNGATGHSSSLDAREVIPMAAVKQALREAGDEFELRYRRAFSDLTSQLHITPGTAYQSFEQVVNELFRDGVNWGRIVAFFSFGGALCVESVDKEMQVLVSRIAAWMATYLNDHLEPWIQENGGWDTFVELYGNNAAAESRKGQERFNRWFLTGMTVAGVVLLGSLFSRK
Chain of Bcl-2 (P10415 whole entry): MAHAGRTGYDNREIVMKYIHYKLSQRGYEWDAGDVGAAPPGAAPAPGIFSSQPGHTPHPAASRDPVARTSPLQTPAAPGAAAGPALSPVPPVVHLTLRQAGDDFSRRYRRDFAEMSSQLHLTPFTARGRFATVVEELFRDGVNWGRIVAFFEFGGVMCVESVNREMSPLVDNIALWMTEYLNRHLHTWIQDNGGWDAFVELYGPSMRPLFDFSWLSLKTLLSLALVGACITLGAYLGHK

In the case of `CCCCN(CCCC)C(=O)c1cn(C)c(-c2ccc(C(=O)NS(=O)(=O)c3ccc4ccccc4c3)cc2C(=O)N2CCc3ccccc3C2)n1` [Example 264, N,N-Dibutyl-1-methyl-2-(4-(naphthalen-2-ylsulfonylcarbamoyl)-2-(1,2,3,4-tetrahydroisoquinoline-2-carbonyl)phenyl)-1H-imidazole-4-carboxamide], the results for the IC50 against Bcl-xL and against Bcl-2 were 40 nM and 110 nM, respectively.
`CCCCN(CCCC)C(=O)c1nn(-c2ccc(C(=O)NS(=O)(=O)c3ccc4cccc(Cl)c4c3)cc2C(=O)N2Cc3ccccc3C[C@H]2CN)c(C)c1Cl` [Example 203, 1-(2-((S)-3-(aminomethyl)-1,2,3,4-tetrahydroisoquinoline-2-carbonyl)-4-(8-chloronaphthalen-2-ylsulfonylcarbamoyl)phenyl)-N,N-dibutyl-4-chloro-5-methyl-1H-pyrazole-3-carboxamide]: the IC50 against Bcl-xL and at Bcl-2 was 10 nM each time.
As to `CCCN(CCC)c1nn(-c2ccc(C(=O)NS(=O)(=O)c3ccc4ccccc4c3)cc2C(=O)N2Cc3ccccc3C[C@H]2CO)c(C)c1Cl` [Example 192, 4-(4-Chloro-3-(dipropylamino)-5-methyl-1H-pyrazol-1-yl)-3-((S)-3-(hydroxymethyl)-1,2,3,4-tetrahydroisoquinoline-2-carbonyl)-N-(naphthalen-2-ylsulfonyl)benzamide], the 50% inhibitory concentration (IC50) is 30 nM at Bcl-xL and 60 nM on Bcl-2.
`CCCCN(CCCC)C(=O)c1nn(-c2ccc(C(=O)NS(=O)(=O)c3ccc4c(ccn4Cc4ccc(Cl)c(Cl)c4)c3)cc2C(=O)N2Cc3ccccc3C[C@H]2CO)c(C)c1Cl` [Example 198, N,N-dibutyl-4-chloro-1-(4-(1-(3,4-dichlorobenzyl)-1H-indol-5-ylsulfonylcarbamoyl)-2-((S)-3-(hydroxymethyl)-1,2,3,4-tetrahydroisoquinoline-2-carbonyl)phenyl)-5-methyl-1H-pyrazole-3-carboxamide]: the results for the IC50 against Bcl-xL and on Bcl-2 were 50 nM and 8.85 nM, respectively.
The like results for `CCCCc1c(-c2ccc(C(=O)NS(=O)(=O)c3ccc4cccc(Cl)c4c3)cc2C(=O)N2CCc3ccccc3C2)c(CO)nn1-c1ccc(Oc2cccc(Cl)c2)cc1` [Example 252, 4-(5-butyl-1-(4-(3-chlorophenoxy)phenyl)-3-(hydroxymethyl)-1H-pyrazol-4-yl)-N-(8-chloronaphthalen-2-ylsulfonyl)-3-(1,2,3,4-tetrahydroisoquinoline-2-carbonyl)benzamide] were, in that order, 10 nM and 6.37 nM.
As for `CCCCN(C(=O)c1nn(-c2ccc(C(=O)NS(=O)(=O)c3ccc4c(Cl)ccc(Cl)c4c3)cc2C(=O)N2CCc3ccccc3C2)c(C)c1Cl)c1cccc(-c2ccc(Cl)cc2)c1` [Example 221, N-butyl-4-chloro-N-(4′-chlorobiphenyl-3-yl)-1-(4-(5,8-dichloronaphthalen-2-ylsulfonylcarbamoyl)-2-(1,2,3,4-tetrahydroisoquinoline-2-carbonyl)phenyl)-5-methyl-1H-pyrazole-3-carboxamide], the IC50 on Bcl-xL and at Bcl-2 was 40 nM in each case.
As to `CCCCN(CCC(=O)NCCN1CCN(C)CC1)C(=O)c1nn(-c2ccc(C(=O)NS(=O)(=O)c3ccc4ccccc4c3)cc2C(=O)N2CCc3ccccc3C2)c(C)c1Cl` [Example 158, N-Butyl-4-chloro-5-methyl-N-(3-(2-(4-methylpiperazin-1-yl)ethylamino)-3-oxopropyl)-1-(4-(naphthalen-2-ylsulfonylcarbamoyl)-2-(1,2,3,4-tetrahydroisoquinoline-2-carbonyl)phenyl)-1H-pyrazole-3-carboxamide], the IC50 against Bcl-xL was determined as 20 nM; against Bcl-2, 70 nM.
The like results for `CCCN(CCC)c1nn(-c2ccc(C(=O)NS(=O)(=O)c3ccc4c(Cl)ccc(Br)c4c3)cc2C(=O)N2Cc3ccccc3C[C@H]2CO)c(C)c1Cl` [Example 207, N-(8-bromo-5-chloronaphthalen-2-ylsulfonyl)-4-(4-chloro-3-(dipropylamino)-5-methyl-1H-pyrazol-1-yl)-3-((S)-3-(hydroxymethyl)-1,2,3,4-tetrahydroisoquinoline-2-carbonyl)benzamide] were, in that order, 40 nM and 7.84 nM.
Regarding `CCCCN(CCCC)C(=O)c1nn(-c2ccc(C(=O)NS(=O)(=O)c3ccc4ccccc4c3)cc2C(=O)N2Cc3ccccc3C[C@H]2COCCO)c(C)c1Cl` [Example 119, N,N-Dibutyl-4-chloro-1-(2-((S)-3-((2-hydroxyethoxy)methyl)-1,2,3,4-tetrahydroisoquinoline-2-carbonyl)-4-(naphthalen-2-ylsulfonylcarbamoyl)phenyl)-5-methyl-1H-pyrazole-3-carboxamide], the IC50 was found to be 10 nM against Bcl-xL and 50 nM against Bcl-2.
As for `CCCCN(CCCC)c1nn(-c2ccc(C(=O)NS(=O)(=O)c3ccc4ccccc4c3)cc2C(=O)N2CCc3ccccc3C2)c(C)c1Cl` [Example 191, 4-(4-Chloro-3-(dibutylamino)-5-methyl-1H-pyrazol-1-yl)-N-(naphthalen-2-ylsulfonyl)-3-(1,2,3,4-tetrahydroisoquinoline-2-carbonyl)benzamide], the IC50 against Bcl-xL turned out to be 690 nM; against Bcl-2, 260 nM.
`CCCCN(CCCC)C(=O)c1cccc(-c2ccc(C(=O)NS(=O)(=O)c3ccc4ccccc4c3)cc2C(=O)N2CCc3ccccc3C2)n1` [Example 286, N,N-Dibutyl-6-(4-(naphthalen-2-ylsulfonylcarbamoyl)-2-(1,2,3,4-tetrahydroisoquinoline-2-carbonyl)phenyl)picolinamide]: the IC50 against Bcl-xL amounted to 70 nM; on Bcl-2 it was 600 nM.
The like results for `CCCCN(CCCC)C(=O)c1nn(-c2ccc(C(=O)NS(=O)(=O)c3ccc4cccc(OCCCN5CCOCC5)c4c3)cc2C(=O)N2CCc3ccccc3C2)c(C)c1Cl` [Example 32, N,N-dibutyl-4-chloro-5-methyl-1-(4-(8-(3-morpholinopropoxy)naphthalen-2-ylsulfonylcarbamoyl)-2-(1,2,3,4-tetrahydroisoquinoline-2-carbonyl)phenyl)-1H-pyrazole-3-carboxamide] were, in that order, 50 nM and 290 nM.
The like results for `CCCCN(CCCC)C(=O)c1nn(-c2ccc(C(=O)NS(=O)(=O)c3ccc4ccccc4c3)cc2C(=O)N2Cc3ccccc3C[C@H]2COCCCOC)c(C)c1Cl` [Example 105, N,N-Dibutyl-4-chloro-1-(2-((S)-3-((3-methoxypropoxy)methyl)-1,2,3,4-tetrahydroisoquinoline-2-carbonyl)-4-(naphthalen-2-ylsulfonylcarbamoyl)phenyl)-5-methyl-1H-pyrazole-3-carboxamide] were, in that order, 30 nM and 20 nM.
The like results for `CCCCN(Cc1ccc(Cl)c(Cl)c1)C(=O)c1nn(-c2ccc(C(=O)NS(=O)(=O)c3ccc4ccc(I)cc4c3)cc2C(=O)N2CCc3ccccc3C2)c(C)c1Cl` [Example 179, N-Butyl-4-chloro-N-(3,4-dichlorobenzyl)-1-(4-(7-iodonaphthalen-2-ylsulfonylcarbamoyl)-2-(1,2,3,4-tetrahydroisoquinoline-2-carbonyl)phenyl)-5-methyl-1H-pyrazole-3-carboxamide] were, in that order, 80 nM and 20 nM.
Turning to `Cc1c(Cl)c(C(=O)N(CCC(F)(F)F)CCC(F)(F)F)nn1-c1ccc(C(=O)NS(=O)(=O)c2ccc3ccccc3c2)cc1C(=O)N1CCc2ccccc2C1` [Example 130, 4-chloro-5-methyl-1-(4-(naphthalen-2-ylsulfonylcarbamoyl)-2-(1,2,3,4-tetrahydroisoquinoline-2-carbonyl)phenyl)-N,N-bis(3,3,3-trifluoropropyl)-1H-pyrazole-3-carboxamide], the concentration for half-maximal inhibition (IC50) stood at 30 nM against Bcl-xL and 80 nM on Bcl-2.
The like results for `CCCCN(CCCC)C(=O)c1nn(-c2ccc(C(=O)NS(=O)(=O)c3ccc4c(Cl)ccc(Br)c4c3)cc2C(=O)N2CCc3ccccc3C2)c(C)c1Cl` [Example 43, 1-(4-(8-bromo-5-chloronaphthalen-2-ylsulfonylcarbamoyl)-2-(1,2,3,4-tetrahydroisoquinoline-2-carbonyl)phenyl)-N,N-dibutyl-4-chloro-5-methyl-1H-pyrazole-3-carboxamide] were, in that order, 20 nM and 3.93 nM.
For `CCCCN(C(=O)c1nn(-c2ccc(C(=O)NS(=O)(=O)c3ccc4ccccc4c3)cc2C(=O)N2CCc3ccccc3C2)c(C)c1Cl)c1cccc(-c2cccc(Cl)c2)c1` [Example 152, N-butyl-4-chloro-N-(3′-chlorobiphenyl-3-yl)-5-methyl-1-(4-(naphthalen-2-ylsulfonylcarbamoyl)-2-(1,2,3,4-tetrahydroisoquinoline-2-carbonyl)phenyl)-1H-pyrazole-3-carboxamide], the IC50 against Bcl-xL amounted to 160 nM; against Bcl-2 it was 50 nM.
The like results for `CCCCN(CCCC)C(=O)c1nn(-c2ccc(C(=O)NS(=O)(=O)c3ccc4ccccc4c3)cc2C(=O)N2CCc3ccccc3C2)c(C)c1Cl` [Example 1, N,N-Dibutyl-4-chloro-5-methyl-1-(4-(naphthalen-2-ylsulfonylcarbamoyl)-2-(1,2,3,4-tetrahydroisoquinoline-2-carbonyl)phenyl)-1H-pyrazole-3-carboxamide] were, in that order, 20 nM and 30 nM.
As for `CCCCN(CCCC)C(=O)c1nn(-c2ccc(C(=O)NS(=O)(=O)c3ccc4ccc(C(=O)N(C)C)cc4c3)cc2C(=O)N2CCc3ccccc3C2)c(C)c1Cl` [Example 48, N,N-Dibutyl-4-chloro-1-(4-(7-(dimethylcarbamoyl)naphthalen-2-ylsulfonylcarbamoyl)-2-(1,2,3,4-tetrahydroisoquinoline-2-carbonyl)phenyl)-5-methyl-1H-pyrazole-3-carboxamide], the IC50 was 80 nM against Bcl-xL and 150 nM at Bcl-2.
The like results for `CCCCN(CCc1ccc(Cl)c(Cl)c1)C(=O)c1nn(-c2ccc(C(=O)NS(=O)(=O)c3ccc4ccccc4c3)cc2C(=O)N2CCc3ccccc3C2)c(C)c1Cl` [Example 127, N-butyl-4-chloro-N-(3,4-dichlorophenethyl)-5-methyl-1-(4-(naphthalen-2-ylsulfonylcarbamoyl)-2-(1,2,3,4-tetrahydroisoquinoline-2-carbonyl)phenyl)-1H-pyrazole-3-carboxamide] were, in that order, 220 nM and 30 nM.

One may read the IC50 as the point on the concentration scale where inhibition reaches its midpoint. A higher IC50 goes with lower potency.
